Test results as given in patent publication US4590264A, “Lipoglycosides and process of extracting same” (Wofor AG, priority 1983, dated 1986).
“Also recorded” adds a separate entry of the source.

Tests used:
Solubility in solvents = type: physicochemical; details: solvents as named in the value
[1] = system: tumor cells derived from human carcinoma of the nasopharynx (KB cells); assay: KB cell assay: cytotoxicity, cell count (alive, dead) after 48 h incubation; type: cell-based; details: for Cell count after incubation, dead / Cell count after incubation, alive: cell count before incubation = 100, Table 3; for Cell count after incubation, dead: control 0; for Cell count after incubation, alive: control 200
Description: The plant is subjected to extraction in various solvents having different polarities (i.e. dielectric constants) at room temperature for a period of from 1 to 10 days. By room temperature, it is meant from about 20° C. to about 25° C. The extract-containing solvents are each tested for their biological activity. As a measure of biological activity, the cytotoxicity of the extracts against tumor cells derived from human carcinoma of the nasopharynx (KB cells) is measured. Those extracts which show the capability of killing KB cells are fractionated to yield the compounds of the present invention.
A sample of cells was taken from a stock supply furnished by a well known commercial laboratory. The primary culture was Minimal Essential Medium (MEM), Flo Laboratories, 10% fetal calf serum. Trypsinization was conducted with 0.2% trypsin in isotonic NaCl. The cells were counted with 0.1% Tripan Blue. The cells were subcultured in a 5 to 1 split in microtiter plates at 2×10^5 cells per well. The volume of culture placed in each well was 1 ml. The cells were counted at three locations before the addition of the extract to yield an average cell count.
Each of the extracts to be tested was added to the cells at a specific concentration as an ethanolic solution. The cells were incubated at 37° C. for 48 hours. Thereafter, the cells were again counted at three locations to provide an average cell count.
As a control, a cell sample was incubated for the same period in culture medium and without the addition of any plant extract.
Each of the extracts obtained above was tested for its effect on KB cells. The cell culture assay protocol described above was used.

Row | SMILES | Solubility (in words) (Solubility in solvents) | Cell count after incubation, dead ([1]; 10 μg/ml) | Cell count after incubation, alive ([1]; 10 μg/ml) | Cell count after incubation, dead ([1]; 100 μg/ml) | Cell count after incubation, alive ([1]; 100 μg/ml) | activity against KB cells / antitumor activity (in words) [1]
1 | CCC1CCCCCCCCCCCCCCCCCCC(=O)OC[C@H]2O[C@@H](O1)[C@H](O)[C@@H](OC(C)=O)[C@@H]2O (stereo partly shown) [Compound II] | soluble in CH2 Cl2 and benzene but insoluble in methanol and ether; also recorded: Insoluble in methanol, ethyl ether | 0.5 | 104.5 | 0 | 0 | active; also recorded: possess antitumor properties
2 | CCC(O)CCCCCCCCCCCCCCCCCCC(=O)OC (stereo not shown) [Example 5, 20-hydroxydocosanoic acid methyl ester] | soluble in n-hexane, benzene and chloroform but insoluble in methanol and acetone |  |  |  |  | 
3 | CCC1CCCCCCCCCCCCCCCCCCC(=O)OC[C@H]2O[C@@H](O1)[C@H](OC(C)=O)[C@@H](O)[C@@H]2O (stereo partly shown) [Compound I] | Soluble in CHCl3, methanol; also recorded: Sparingly soluble in acetyl ethyl ether and acetone; also recorded: Insoluble in ethyl ether and petroleum ether | 0 | 15 | 0 | 0 | active; also recorded: possess antitumor properties
